Measurements taken from paper PMC10298275, “Antiproliferative Activity and Impact on Human Gut Microbiota of New O-Alkyl Derivatives of Naringenin and Their Oximes” (International Journal of Molecular Sciences, 2023).
Values after ≈ are worked out from the molar mass of the structure shown. Read-outs that look alike come from different tables or passages of the source.

Columns and labels:
[1] = tested on: Enterococcus faecalis ATCC 29212; test: MIC, microdilution method; assay type: cell-based; settings: E. faecalis ATCC 29212, MHB, 24 h, 37 °C, tested 512 to 1 µg/mL
Method: (§1) Non-pathogenic reference strains representing the intestinal microbiome were used for the studies: Escherichia coli K12, Staphylococcus aureus ATCC 25923 and Enterococcus faecalis ATCC 29212. All strains were obtained from the collection of the Department of Microbiology at the Medical University of Wrocław.
(§2) The strains were received from the museum (−80 °C) and grown in tryptic soy broth (TSB, OXOID, Basingstoke, UK) under continuous shaking conditions (MaxQTM6000 incubator shaker, Thermo Scientific, Waltham, MA, USA) at 125 rpm at 37 °C. Then, they were moved to the growth media, namely tryptic soy agar (TSA, OXOID, Basingstoke, UK) and MacConkey agar (MC, Millipore, Darmstadt, Germany) for S. aureus or E. faecalis and E. coli, respectively.
(§3) A fresh 18–24 h culture was used for each study. For this purpose, a culture with a density of 1.5 × 10^8 CFU/mL in Mueller–Hinton broth (MHB, OXOID, Basingstoke, UK) was prepared and used for further microdilution studies.
(§4) The antimicrobial activity of the O-alkyl derivatives of naringenin and their oximes was tested in vitro using the microdilution method, showing the minimum inhibitory concentration (MIC), in accordance with the recommendations of the European Antimicrobial Susceptibility Testing Committee EUCAST [44]. MICs were determined in 96-well microdilution plates. The tests were carried out in MHB medium. The O-alkyl derivatives of naringenin and their oximes were tested in the concentration range of 512 to 1 µg/mL in a geometric process in MHB medium. The final concentration of the test strains in each test well was 5 × 10^5 CFU/mL. MICs were read after 18 h (for E. coli and S. aureus) and 24 h (for E. faecalis) incubation at 37 °C.
(§5) A strain growth control (tested strain in medium), background control for tested compounds (naringenin derivatives in MHB), medium control (only pure MHB) and compound solvent control (DMSO at test compound concentration, strain and MHB) were set for each experiment. Each test was set up with three independent experiments, each as three separate replicates.
(§6) The […], OD600, was measured in a plate reader (ASYS UVM340, BIOCHROM Ltd., Cambridge, UK). The background control of the tested compounds and the clean medium were included in the absorbance results.

Escherichia coli K12 [2] = test: MIC, microdilution method; assay type: cell-based; settings: Escherichia coli; E. coli K12; MHB, 18 h, 37 °C; tested 512 to 1 µg/mL; read-out: MIC
Method: as §1, §2, §3, §4, §5, §6

[3] = tested on: Staphylococcus aureus ATCC 25923; test: MIC, microdilution method; assay type: cell-based; settings: S. aureus ATCC 25923, MHB, 18 h, 37 °C, tested 512 to 1 µg/mL
Method: as §1, §2, §3, §4, §5, §6

[4] = tested on: Enterococcus faecalis ATCC 29212; test: MBC assay; assay type: cell-based; settings: Enterococcus faecalis, ATCC29212; E. faecalis ATCC 29212; read-out: MBC
Method: (§7) The minimum bactericidal concentration (MBC) was tested for all naringenin derivatives. First, 10 µL of medium was taken from the plate, on which the MIC was determined for the MIC value, the value below and the two values above. This volume was transferred to TSA or MC agar. After 18–24 h (depending on strain) incubation at 37 °C, colonies were counted. The concentration of test compounds at which no bacterial growth was observed was defined as the MBC value. Each experiment was repeated 3 times.

Escherichia coli K12 [5] = test: MBC assay; assay type: cell-based; settings: Escherichia coli; E. coli K12; read-out: MBC
Method: as §7

[6] = tested on: Staphylococcus aureus ATCC 25923; test: MBC assay; assay type: cell-based; settings: Staphylococcus aureus, ATCC25923; S. aureus ATCC 25923; read-out: MBC
Method: as §7

SRB assay, cytotoxicity [7] = assay type: cell-based, human; settings: human, HT-29 cells; HT-29, SRB, 24 h exposure, three independent repeats; read-out: Cytotoxicity (IC50 ± SD)
Method: (§8) The HT-29 cells (ATCC, Manassas, VA, USA) were cultured within α-MEM (IIET PAS, Wrocław, Poland) supplemented with 10% fetal bovine serum (Sigma, St. Louis, MO, USA), antimycotic (100 μg/mL penicillin, 100 μg/mL streptomycin and 0.25 μg/mL amphotericin) (Sigma) and 2 mM glutamine (Sigma). The 3T3-L1 cells (ATCC, Manassas, VA, USA) were cultivated using DMEM high-glucose medium (IIET PAS, Wrocław, Poland) supplemented as above. Both cell lines were cultured at 37 °C in an atmosphere of 5% CO2.
(§9) The sulforhodamine B (SRB) assay was performed according to a previously published protocol. Briefly, 1 × 10^4 HT-29 or 5 × 10^3 3T3-L1 cells were seeded into 96-well plates. After attaching to the plate surface, the cells were incubated with 100, 75, 50, 25, 10 or 1 µg/mL of the investigated compounds for 24 h. After this time, proteins were precipitated with trichloroacetic acid and stained with SRB. The absorbance was measured at 560 nm using a GloMax Discover Microplate Reader (Promega, Madison, WI, USA).

SRB assay, cytotoxicity [8] = assay type: cell-based, mouse; settings: mouse, 3T3-L1 cells; 3T3-L1, SRB, 24 h exposure, three independent repeats; read-out: Cytotoxicity (IC50 ± SD)
Method: as §8, §9

HT-29 cells [9] = test: MTT assay, cell viability; assay type: cell-based, human; settings: 24 h; for reduction in cell viability: HT-29, MTT, 10 µg/mL dose; for effect on colon adenocarcinoma cells (viability, MTT): HT-29, highest concentration 100 µg/mL
Method: as §8
First, 1 × 10^4 HT-29 cells or 5 × 10^3 3T3-L1 cells were seeded into a 96-well plate and incubated for one night. Then, cells were treated with different concentrations of the investigated compounds within 24 h. Afterwards, the medium was replaced with a fresh medium containing 0.5 mg/mL of 3-(4,5-dimethylthiazol-2-yl)-2,5-diphenyl-2H-tetrazolium bromide (MTT, Sigma) and incubated for 2 h at 37 °C. After removing the medium, the formazan salts were dissolved in dimethyl sulfoxide (DMSO, Sigma), and the absorbance of the solution was measured at 560 nm using a plate reader.

HT-29 cells [10] = test: SRB assay, cytotoxicity; assay type: cell-based, human; settings: HT-29, SRB, up to 100 µg/mL
Method: as §8, §9

[11] = Enterococcus faecalis, ATCC29212, read-out: MIC
[12] = Staphylococcus aureus, ATCC25923, read-out: MIC

SMILES | MIC [1, 11] | MIC (Escherichia coli K12 [2]) | MIC [3, 12] | MBC [4] | MBC (Escherichia coli K12 [5]) | MBC [6] | IC50 at 24 h (SRB assay, cytotoxicity [7]) | IC50 at 24 h (SRB assay, cytotoxicity [8]) | reduction in cell viability (HT-29 cells [9]) | melting point | MIC [1] | effect on the proliferation of the HT-29 cell line (HT-29 cells [10]) | effect on colon adenocarcinoma cells (viability, MTT) (HT-29 cells [9]) | MIC [3]
CCCCCCCOc1cc(O)c2c(c1)O[C@H](c1ccc(O)cc1)CC2=NO [B3, 7-O-Heptylnaringenin oxime] | 16 µg/mL (≈ 41.5 µM) | > 512 µg/mL | 64 µg/mL (≈ 166 µM) | 512 µg/mL (≈ 1330 µM) | > 512 µg/mL | 128 µg/mL (≈ 332 µM) | 11.3 ± 0.81 µg/mL (≈ 29.3 µM) | 7.77 ± 1.11 µg/mL (≈ 20.2 µM) | more than 50% | 186 to 187 °C |  |  |  | 
CCCCCCCCCOc1ccc([C@@H]2CC(=NO)c3c(O)cc(OCCCCCCCCC)cc3O2)cc1 [B8, 7,4′-Di-O-nonylnaringenin oxime] | > 512 µg/mL | > 512 µg/mL | > 512 µg/mL | > 512 µg/mL | > 512 µg/mL | > 512 µg/mL | > 100 µg/mL | > 100 µg/mL |  | 87 to 88 °C | >512 (>512) µg/mL | no effect on the proliferation |  | 
CCCCCCOc1cc(O)c2c(c1)O[C@H](c1ccc(O)cc1)CC2=NO [B1, 7-O-hexylnaringenin oxime] | 16 µg/mL (≈ 43.1 µM) | > 512 µg/mL | 8 µg/mL (≈ 21.5 µM) | 256 µg/mL (≈ 689 µM) | > 512 µg/mL | 32 µg/mL (≈ 86.2 µM) | 11.3 ± 1.63 µg/mL (≈ 30.5 µM) | 8.3 ± 0.72 µg/mL (≈ 22.3 µM) | more than 50% |  |  |  |  | 
CCCCCCCCOc1cc(O)c2c(c1)O[C@H](c1ccc(O)cc1)CC2=O [A5, 7-O-Octylnaringenin] | 16 µg/mL (≈ 41.6 µM) | > 512 µg/mL | 8 µg/mL (≈ 20.8 µM) | > 512 µg/mL | > 512 µg/mL | > 512 µg/mL | 14.63 ± 0.13 µg/mL (≈ 38.1 µM) | 8.86 ± 0.67 µg/mL (≈ 23 µM) |  | 111 to 113 °C |  |  | completely inhibited | 
CCCCCCCCCOc1cc(O)c2c(c1)O[C@H](c1ccc(O)cc1)CC2=O [A7, 7-O-Nonylnaringenin] | 16 µg/mL (≈ 40.2 µM) | > 512 µg/mL | 16 µg/mL (≈ 40.2 µM) | > 512 µg/mL | > 512 µg/mL | > 512 µg/mL | 15 ± 0.41 µg/mL (≈ 37.7 µM) | 8.65 ± 0.71 µg/mL (≈ 21.7 µM) |  | 115 to 116 °C |  |  | completely inhibited | 
CCCCCCCCCOc1cc(O)c2c(c1)O[C@H](c1ccc(O)cc1)CC2=NO [B7, 7-O-Nonylnaringenin oxime] | 8 µg/mL (≈ 19.3 µM) | > 512 µg/mL | 128 µg/mL (≈ 310 µM) | > 512 µg/mL | > 512 µg/mL | > 512 µg/mL | 11.2 ± 1.27 µg/mL (≈ 27.2 µM) | 6.08 ± 0.64 µg/mL (≈ 14.7 µM) | more than 50% | 176 to 178 °C |  |  |  | 
CCCCCCCCOc1ccc([C@@H]2CC(=NO)c3c(O)cc(OCCCCCCCC)cc3O2)cc1 [B6, 7,4′-Di-O-octylnaringenin oxime] | > 512 µg/mL | > 512 µg/mL | > 512 µg/mL | > 512 µg/mL | > 512 µg/mL | > 512 µg/mL | > 100 µg/mL | > 100 µg/mL |  | 85 to 86 °C | >512 (>512) µg/mL | no effect on the proliferation |  | 
CCCCCCCCOc1cc(O)c2c(c1)O[C@H](c1ccc(O)cc1)CC2=NO [B5, 7-O-Octylnaringenin oxime] | 16 µg/mL (≈ 40.1 µM) | > 512 µg/mL | 256 µg/mL (≈ 641 µM) | 256 µg/mL (≈ 641 µM) | > 512 µg/mL | > 512 µg/mL | 9.96 ± 1.13 µg/mL (≈ 24.9 µM) | 7.1 ± 1.57 µg/mL (≈ 17.8 µM) | more than 50% | 183 to 185 °C |  |  |  | 
CCCCCCCOc1cc(O)c2c(c1)O[C@H](c1ccc(O)cc1)CC2=O [A3, 7-O-Heptylnaringenin] | 32 µg/mL (≈ 86.4 µM) | > 512 µg/mL | 16 µg/mL (≈ 43.2 µM) | > 512 µg/mL | > 512 µg/mL | > 512 µg/mL | 14.2 ± 0.56 µg/mL (≈ 38.3 µM) | 7.61 ± 1.2 µg/mL (≈ 20.5 µM) |  | 114 to 115 °C |  |  | completely inhibited | 
CCCCCCOc1cc(O)c2c(c1)O[C@H](c1ccc(O)cc1)CC2=O [A1, 7-O-hexylnaringenin] | 16 µg/mL (≈ 44.9 µM) | > 512 µg/mL | 16 µg/mL (≈ 44.9 µM) | > 512 µg/mL | > 512 µg/mL | > 512 µg/mL | 14.3 ± 0.84 µg/mL (≈ 40.1 µM) | 10.8 ± 1.1 µg/mL (≈ 30.4 µM) |  |  |  |  | completely inhibited | 
CCCCCCCCCCCOc1ccc([C@@H]2CC(=NO)c3c(O)cc(OCCCCCCCCCCC)cc3O2)cc1 [B10, 7,4′-Di-O-undecylnaringenin oxime] | > 512 µg/mL | > 512 µg/mL | > 512 µg/mL | > 512 µg/mL | > 512 µg/mL | > 512 µg/mL | > 100 µg/mL | > 100 µg/mL |  | 95 to 96 °C | >512 (>512) µg/mL | no effect on the proliferation |  | 
CCCCCCCCOc1ccc([C@@H]2CC(=O)c3c(O)cc(OCCCCCCCC)cc3O2)cc1 [A6, 7,4′-Di-O-octylnaringenin] | 32 µg/mL (≈ 64.4 µM) | > 512 µg/mL | > 512 µg/mL | > 512 µg/mL | > 512 µg/mL | > 512 µg/mL | > 100 µg/mL | > 100 µg/mL |  | 60 to 61 °C |  | no effect on the proliferation | weak | >512 (>512) µg/mL
CCCCCCCOc1ccc([C@@H]2CC(=NO)c3c(O)cc(OCCCCCCC)cc3O2)cc1 [B4, 7,4′-Di-O-heptylnaringenin oxime] | > 512 µg/mL | > 512 µg/mL | > 512 µg/mL | > 512 µg/mL | > 512 µg/mL | > 512 µg/mL | > 100 µg/mL | > 100 µg/mL |  | 82 to 83 °C | >512 (>512) µg/mL | no effect on the proliferation |  | 
